# Test results: US20210317140A1, “Heterocyclic Compounds and Methods of Use” (MEDIVATION TECHNOLOGIES, INC, priority 2013, published 2021)
# Tests used:
# [1] = biological target: T1, PI3Kδ (Homo sapiens, UniProt O00329); assay: PI3Kδ kinase assay (HTRF, PIP3 detection); type: biochemical; details: for PI3Kδ @ 0.1 μM (% Inh): 0.1 μM compound; for PI3Kδ @ 0.1 μM (% Inh) / PI3Kδ @ 1 μM (% Inh) / PI3Kδ @ 0.01 μM (% Inh): 10 μM ATP; for PI3Kδ @ 1 μM (% Inh): 1 μM compound; for IC50: 10 dose IC50, 10 μM ATP; for PI3Kδ @ 0.01 μM (% Inh): 0.01 μM compound
# T1 construct: purchased Reaction Biology Corporation
# Summary of the method: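 PIP3 formation read by loss of energy transfer as it displaces biotin-PIP3 from a Eu anti-GST/GST-PH/streptavidin-APC complex, calibrated against PIP3 standards.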
# [2] = biological target: T2, BTK (Homo sapiens, UniProt Q06187); assay: BTK kinase assay (HotSpot, 33P ATP); type: biochemical; details: for BTK @ 0.1 μM (% Inh): 0.1 μM compound; for BTK @ 0.1 μM (% Inh) / BTK @ 1 μM (% Inh) / BTK @ 0.01 μM (% Inh): 10 μM ATP; for BTK @ 1 μM (% Inh): 1 μM compound; for IC50: 10 dose IC50, 10 μM ATP; for BTK @ 0.01 μM (% Inh): 0.01 μM compound
# T2 construct: purchased Reaction Biology Corporation
# Summary of the method: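 In 20 mM Hepes (pH 7.5) with 10 mM MgCl2, 1 mM EGTA, 0.1 mM Na3VO4, 2 mM DTT, 0.02% Brij35, 0.02 mg/mL BSA and 1% DMSO, kinase and substrate were exposed to ten compound doses for 15–20 min.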
# [3] = system: CD69+B220+ cells; assay: B cell activation assay (IgD-stimulated splenocytes, CD69+B220+ cells by FACS); type: cell-based; details: mouse splenocytes, IgD 3 μg/mL, 4 h; for CD69 @ 100 nM (% Inh): 100 nM compound
# Protocol: 1 Female mouse approximately 2 months old was euthanized with CO2 and the spleen removed. The tissue was homogenized with a polished glass microscope slide. The cells were collected in 5 mL complete medium (RPMI+10% FBS+pen/strep), placed in a 15 mL falcon tube and centrifuged at 500×g for 5 min. The supernatant was discarded and the pellet was resuspended in 3 mL of ACK lysis buffer (NH4Cl 0.17M, KHCO3 10 mM, EDTA-Na2 0.1 mM, pH 7.2), incubated at 37° C. for 5 min. 2 mL complete medium was added and the mixture centrifuged at 500×g for 5 min. The supernatant was discarded and the pellet resuspended in 1 mL complete medium. The mixture was passed through a […] cell strainer and collect in 50 mL falcon tube. Enough medium was added to have a total of 10 mL. The cells were counted and seeded in 24 or 48-well plate in 1 mL complete medium at 10^6 cells/mL. The plate was placed in a 37° C. incubator for 15 min. The cells were treated for 30 min at 37° C. with 100 nM test compound dissolved in 100% DMSO. 3 μL IgD (Accurate chemical and scientific corp.) was added at a final concentration of 3 μg/mL and the mixture incubated at 37° C. for 4 h. The cells were collected in 1.5 mL eppendorf tubes, centrifuged at 500×g for 5 min and then resuspended in 100 μL of PBS+2% FBS. The following antibodies were added: α-B220 PE (pharmingen #553090), α-CD69 APC (pharmingen #60689), live/dead fixable aqua dead cell stain kit (life technologies #L34957) all at 1:300, and the mixture incubated for 15 min at 4° C. in the dark. To this was added 900 μL of PBS+2% FBS and the mixture centrifuged at 500×g for 5 min. The supernatant was removed and the pellet resuspended in 300 μL of PBS+2% FBS and mixed well. The mixture was transferred to a cytometer tube. The samples were run in the FACS Canto II cytometer and quantified by the number of CD69+B220+ cells as a percentage of the total number of B220+ alive cells.
# T1 sequence (O00329 whole entry): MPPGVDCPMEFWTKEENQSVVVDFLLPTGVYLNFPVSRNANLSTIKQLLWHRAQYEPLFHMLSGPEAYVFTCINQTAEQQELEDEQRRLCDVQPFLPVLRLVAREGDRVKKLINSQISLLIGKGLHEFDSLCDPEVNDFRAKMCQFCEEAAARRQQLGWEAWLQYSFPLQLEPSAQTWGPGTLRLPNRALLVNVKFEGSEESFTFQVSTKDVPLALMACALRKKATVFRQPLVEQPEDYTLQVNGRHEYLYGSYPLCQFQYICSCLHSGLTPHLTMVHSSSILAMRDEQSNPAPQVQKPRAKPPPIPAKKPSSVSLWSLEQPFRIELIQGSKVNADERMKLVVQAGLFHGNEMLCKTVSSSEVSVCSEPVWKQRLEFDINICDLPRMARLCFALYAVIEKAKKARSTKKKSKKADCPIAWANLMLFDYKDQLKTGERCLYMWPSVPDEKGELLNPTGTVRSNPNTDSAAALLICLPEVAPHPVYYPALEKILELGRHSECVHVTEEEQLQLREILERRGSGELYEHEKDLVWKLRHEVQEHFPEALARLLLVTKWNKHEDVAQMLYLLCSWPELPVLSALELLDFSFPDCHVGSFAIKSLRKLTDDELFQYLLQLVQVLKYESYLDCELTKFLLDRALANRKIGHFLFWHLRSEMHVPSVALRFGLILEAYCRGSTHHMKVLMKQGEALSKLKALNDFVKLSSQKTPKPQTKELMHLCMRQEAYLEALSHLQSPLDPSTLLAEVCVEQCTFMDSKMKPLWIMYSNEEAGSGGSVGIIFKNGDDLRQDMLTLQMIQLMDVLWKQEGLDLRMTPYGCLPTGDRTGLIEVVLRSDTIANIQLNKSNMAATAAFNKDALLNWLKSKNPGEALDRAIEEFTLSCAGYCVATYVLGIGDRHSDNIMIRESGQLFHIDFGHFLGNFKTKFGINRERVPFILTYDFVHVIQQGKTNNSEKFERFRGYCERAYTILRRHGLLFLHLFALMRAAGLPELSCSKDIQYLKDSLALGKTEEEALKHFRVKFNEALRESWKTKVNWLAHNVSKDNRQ
# T1 sequence (P27986 whole entry partner): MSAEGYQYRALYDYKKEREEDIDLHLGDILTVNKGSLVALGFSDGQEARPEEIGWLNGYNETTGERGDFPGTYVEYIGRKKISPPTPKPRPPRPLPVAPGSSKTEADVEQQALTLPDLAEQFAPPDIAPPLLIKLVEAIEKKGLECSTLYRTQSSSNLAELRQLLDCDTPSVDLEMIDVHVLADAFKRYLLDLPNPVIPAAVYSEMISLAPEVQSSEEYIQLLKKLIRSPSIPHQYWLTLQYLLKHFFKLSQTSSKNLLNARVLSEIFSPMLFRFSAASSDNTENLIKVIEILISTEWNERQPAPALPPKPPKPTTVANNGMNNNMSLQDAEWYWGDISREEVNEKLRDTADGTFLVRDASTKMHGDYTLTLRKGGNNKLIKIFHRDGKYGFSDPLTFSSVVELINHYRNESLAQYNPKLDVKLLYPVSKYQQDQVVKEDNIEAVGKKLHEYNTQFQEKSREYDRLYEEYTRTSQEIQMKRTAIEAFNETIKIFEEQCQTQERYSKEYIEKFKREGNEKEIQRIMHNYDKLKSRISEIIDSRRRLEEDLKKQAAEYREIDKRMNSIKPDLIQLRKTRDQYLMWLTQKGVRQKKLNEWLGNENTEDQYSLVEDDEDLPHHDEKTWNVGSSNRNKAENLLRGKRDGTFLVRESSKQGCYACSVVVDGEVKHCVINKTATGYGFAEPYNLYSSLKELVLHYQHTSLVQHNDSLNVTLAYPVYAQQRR
# T2 sequence (Q06187 whole entry): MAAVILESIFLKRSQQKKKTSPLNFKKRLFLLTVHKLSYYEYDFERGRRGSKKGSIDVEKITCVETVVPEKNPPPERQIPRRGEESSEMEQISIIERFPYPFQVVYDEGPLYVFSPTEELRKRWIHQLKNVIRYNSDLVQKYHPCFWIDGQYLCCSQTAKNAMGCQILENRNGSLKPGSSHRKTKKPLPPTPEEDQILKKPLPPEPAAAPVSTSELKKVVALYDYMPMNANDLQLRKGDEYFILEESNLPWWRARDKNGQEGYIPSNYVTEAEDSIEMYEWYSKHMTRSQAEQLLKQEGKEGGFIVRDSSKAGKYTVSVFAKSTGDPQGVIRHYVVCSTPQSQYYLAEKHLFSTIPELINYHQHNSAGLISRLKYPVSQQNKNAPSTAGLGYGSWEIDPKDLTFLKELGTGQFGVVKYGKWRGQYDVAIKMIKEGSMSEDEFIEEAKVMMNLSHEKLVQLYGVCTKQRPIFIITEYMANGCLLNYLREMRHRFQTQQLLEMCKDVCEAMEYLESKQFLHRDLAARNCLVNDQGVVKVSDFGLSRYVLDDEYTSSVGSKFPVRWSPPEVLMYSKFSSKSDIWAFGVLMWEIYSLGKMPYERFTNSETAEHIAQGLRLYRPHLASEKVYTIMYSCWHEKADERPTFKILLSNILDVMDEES
SMILES,PI3Kδ @ 0.1 μM (% Inh) [1],PI3Kδ @ 1 μM (% Inh) [1],IC50 [1],BTK @ 0.1 μM (% Inh) [2],BTK @ 1 μM (% Inh) [2],IC50 [2],PI3Kδ @ 0.01 μM (% Inh) [1],BTK @ 0.01 μM (% Inh) [2],IC50 ([3]; Splenocyte),CD69 @ 100 nM (% Inh) [3]
"Nc1cc(-c2nn(C3Cc4ccccc4C3)c3ncnc(N)c23)cnc1Cl [Compound No. 104, 5-[4-amino-1-(2,3-dihydro-1H-inden-2-yl)-1H-pyrazolo[3,4-d]pyrimidin-3-yl]-2-chloropyridin-3-amine]",38.16 % Inh,82.84 % Inh,282 nM,72.07 % Inh,94.25 % Inh,54.9 nM,–,–,–,28.78 ± 19.62 (n = 5) % Inh
"Nc1ncnc2c1c(-c1cc(O)cc(F)c1)nn2C1CCc2cc(F)ccc21 (stereo not drawn) [compound 42, 3-[4-amino-1-(5-fluoro-2,3-dihydro-1H-inden-1-yl)-1H-pyrazolo[3,4-d]pyrimidin-3-yl]-5-fluorophenol]",70.85 % Inh,–,–,23.06 % Inh,–,–,–,–,–,22.71 ± 5.53 (n = 3) % Inh
"Nc1ncnc2c1c(-c1ccc3[nH]c(O)nc3c1)nn2C1Cc2ccccc2C1 [compound 108, 5-[4-amino-1-(2,3-dihydro-1H-inden-2-yl)-1H-pyrazolo[3,4-d]pyrimidin-3-yl]-1H-1,3-benzodiazol-2-ol]",21.98 % Inh,–,–,6.6 % Inh,–,–,9.28 % Inh,1.76 % Inh,–,11.99 ± 7.58 (n = 3) % Inh
"CNc1cc(-c2cn(C3Cc4ccccc4C3)c3ncnc(N)c23)cc(F)c1F [compound 113, 5-[3,4-difluoro-5-(methylamino)phenyl]-7-(2,3-dihydro-1H-inden-2-yl)-7H-pyrrolo[2,3-d]pyrimidin-4-amine]",39.52 % Inh,–,–,38.11 % Inh,–,–,20.77 % Inh,8.12 % Inh,–,11.61 ± 11.81 (n = 3) % Inh
"Nc1ncnc2c1c(-c1cc(O)c(F)c(F)c1)cn2C1CCc2ccccc2C1 (stereo not drawn) [compound 114, 5-[4-amino-7-(1,2,3,4-tetrahydronaphthalen-2-yl)-7H-pyrrolo[2,3-d]pyrimidin-5-yl]-2,3-difluorophenol]",84.46 % Inh,–,23.2 nM,86.29 % Inh,–,20.2 nM,41.19 % Inh,41.16 % Inh,–,10.19 ± 13.54 (n = 3) % Inh
"Nc1ncnc2c1c(-c1cc(O)c(F)c(Cl)c1)nn2C1Cc2ccccc2C1 [compound 117, 5-[4-amino-1-(2,3-dihydro-1H-inden-2-yl)-1H-pyrazolo[3,4-d]pyrimidin-3-yl]-3-chloro-2-fluorophenol]",91.69 % Inh,–,–,67.32 % Inh,–,–,75.86 % Inh,21.31 % Inh,–,46.59 ± 11.89 (n = 3) % Inh
"Nc1ncnc2c1c(-c1cc(O)c(Cl)c(Cl)c1)nn2C1Cc2ccccc2C1 [compound 118, 5-[4-amino-1-(2,3-dihydro-1H-inden-2-yl)-1H-pyrazolo[3,4-d]pyrimidin-3-yl]-2,3-dichlorophenol]",95.72 % Inh,–,–,65.15 % Inh,–,–,79.16 % Inh,19.01 % Inh,–,44.32 ± 10.35 (n = 3) % Inh
"N#Cc1cc(-c2nn(C3Cc4ccccc4C3)c3ncnc(N)c23)cc(O)c1F [compound 120, 5-[4-amino-1-(2,3-dihydro-1H-inden-2-yl)-1H-pyrazolo[3,4-d]pyrimidin-3-yl]-2-fluoro-3-hydroxybenzonitrile]",91.68 % Inh,–,–,1.41 % Inh,–,–,77.84 % Inh,93.67 % Inh,–,−99.28 ± 22.26 (n = 3) % Inh
"Nc1ncnc2c1c(-c1cc(F)c3c(c1)NCCO3)nn2C1Cc2ccc(F)cc2C1 (stereo not drawn) [compound 121, 1-(5-fluoro-2,3-dihydro-1H-inden-2-yl)-3-(8-fluoro-3,4-dihydro-2H-1,4-benzoxazin-6-yl)-1H-pyrazolo[3,4-d]pyrimidin-4-amine]",25.95 % Inh,–,–,6.55 % Inh,–,–,1.09 % Inh,90.34 % Inh,–,−82.03 ± 14.71 (n = 3) % Inh

# Continued, in another order:
PI3Kδ @ 0.1 μM (% Inh) [1],PI3Kδ @ 1 μM (% Inh) [1],IC50 [1],BTK @ 0.1 μM (% Inh) [2],BTK @ 1 μM (% Inh) [2],IC50 [2],PI3Kδ @ 0.01 μM (% Inh) [1],BTK @ 0.01 μM (% Inh) [2],IC50 ([3]; Splenocyte),SMILES,CD69 @ 100 nM (% Inh) [3]
16.0 % Inh,34.72 % Inh,–,27.50 % Inh,59.18 % Inh,–,–,–,–,"COc1cc(-c2nn(C3Cc4ccccc4C3)c3ncnc(N)c23)cc(C#N)c1OC [Compound No. 105, 5-[4-amino-1-(2,3-dihydro-1H-inden-2-yl)-1H-pyrazolo[3,4-d]pyrimidin-3-yl]-2,3-dimethoxybenzonitrile]",24.25 ± 33.84 (n = 5) % Inh
26.17 % Inh,–,–,63.35 % Inh,–,–,2.46 % Inh,14.85 % Inh,–,"Nc1cc(-c2nn(C3Cc4ccccc4C3)c3ncnc(N)c23)cc(F)c1F [compound 109, 3-(3-amino-4,5-difluorophenyl)-1-(2,3-dihydro-1H-inden-2-yl)-1H-pyrazolo[3,4-d]pyrimidin-4-amine]",10.19 ± 14.12 (n = 3) % Inh
91.28 % Inh,–,–,17.47 % Inh,–,–,64.38 % Inh,6.49 % Inh,118 ± 11.1 nM,"NC(=O)c1ccc(-c2nn(C3Cc4ccccc4C3)c3ncnc(N)c23)cc1O [compound 111, 4-[4-amino-1-(2,3-dihydro-1H-inden-2-yl)-1H-pyrazolo[3,4-d]pyrimidin-3-yl]-2-hydroxybenzamide]",57.39 ± 5.05 (n = 3) % Inh
70.68 % Inh,–,77.9 nM,47.8 % Inh,–,71.8 nM,6.65 % Inh,10.59 % Inh,–,"NC(=O)c1cc(-c2cn(C3Cc4ccccc4C3)c3ncnc(N)c23)cc(O)c1F [compound 116, 5-[4-amino-7-(2,3-dihydro-1H-inden-2-yl)-7H-pyrrolo[2,3-d]pyrimidin-5-yl]-2-fluoro-3-hydroxybenzamide]",20.48 ± 16.90 (n = 3) % Inh
91.77 % Inh,–,–,70.28 % Inh,–,–,70.35 % Inh,21.71 % Inh,–,"Nc1ncnc2c1c(-c1cc(O)c(F)c(F)c1)nn2C1CCc2ccccc2C1 (stereo not drawn) [compound 119, 5-[4-amino-1-(1,2,3,4-tetrahydronaphthalen-2-yl)-1H-pyrazolo[3,4-d]pyrimidin-3-yl]-2,3-difluorophenol]",47.52 ± 5.57 (n = 3) % Inh
